Measurements from article PMC12655637, “Design, Synthesis, and Mechanistic Study of Novel Ciprofloxacin/Thiazole Chalcone Hybrids as Potential Anticancer Agents” (Pharmaceuticals, 2025).

Key:
CCRF-CEM = assay: NCI-60 screening, one-dose (10 µM) and five-dose, SRB; format: cell-based, human; conditions: Homo sapiens, 10 μM, Leukemia, read-out: Growth percentage
MOLT-4 = assay: as above; format: cell-based, human; conditions: Homo sapiens; 10 μM; MOLT-4, Leukemia; read-out: Growth percentage
SR = assay: as above; format: cell-based, human; conditions: 10 μM, Leukemia
A549/ATCC = assay: as above; format: cell-based, human; conditions: Homo sapiens, 10 μM, Non-Small-Cell Lung Cancer, read-out: Growth percentage
EKVX = assay: as above; format: cell-based, human; conditions: Homo sapiens, 10 μM, Non-Small-Cell Lung Cancer, read-out: Growth percentage
HOP-92 = assay: as above; format: cell-based, human; conditions: Homo sapiens; 10 μM; HOP-92, Non-Small-Cell Lung Cancer; read-out: Growth percentage
NCI-H226 = assay: as above; format: cell-based, human; conditions: Homo sapiens; 10 μM; NCI-H226, Non-Small-Cell Lung Cancer; read-out: Growth percentage
NCI-H23 = assay: as above; format: cell-based, human; conditions: Homo sapiens; 10 μM; NCI-H23, Non-Small-Cell Lung Cancer; read-out: Growth percentage
NCI-H460 = assay: as above; format: cell-based, human; conditions: Homo sapiens, NCI-H460, 10 μM; NCI-H460, Non-Small-Cell Lung Cancer; read-out: Growth percentage
NCI-H522 = assay: as above; format: cell-based, human; conditions: Homo sapiens; 10 μM; NCI-H522, Non-Small-Cell Lung Cancer; read-out: Growth percentage
COLO 205 = assay: as above; format: cell-based, human; conditions: Homo sapiens; 10 μM; COLO 205, Colon Cancer; read-out: Growth percentage
SF-268 = assay: as above; format: cell-based, human; conditions: Homo sapiens; 10 μM; SF-268, CNS Cancer; read-out: Growth percentage
SF-539 = assay: as above; format: cell-based, human; conditions: Homo sapiens, SF-539, 10 μM; SF-539, CNS Cancer; read-out: Growth percentage
U251 = assay: as above; format: cell-based, human; conditions: Homo sapiens, U-251; 10 μM; U251, CNS Cancer; read-out: Growth percentage
MDA-MB-435 = assay: as above; format: cell-based; conditions: Homo sapiens, MDA-MB-435, read-out: Growth percentage, 10 μM; MDA-MB-435, Melanoma
SK-MEL-2 = assay: as above; format: cell-based, human; conditions: Homo sapiens; 10 μM; SK-MEL-2, Melanoma; read-out: Growth percentage
SK-MEL-28 = assay: as above; format: cell-based, human; conditions: Homo sapiens; 10 μM; SK-MEL-28, Melanoma; read-out: Growth percentage
UACC-62 = assay: as above; format: cell-based; conditions: Homo sapiens; 10 μM; UACC-62, Melanoma; read-out: Growth percentage
OVCAR-3 = assay: as above; format: cell-based; conditions: Homo sapiens; 10 μM; OVCAR-3, Ovarian Cancer; read-out: Growth percentage
OVCAR-4 = assay: as above; format: cell-based, human; conditions: Homo sapiens; 10 μM; OVCAR-4, Ovarian Cancer; read-out: Growth percentage
OVCAR-8 = assay: as above; format: cell-based, human; conditions: Homo sapiens; 10 μM; OVCAR-8, Ovarian Cancer; read-out: Growth percentage
SK-OV-3 = assay: as above; format: cell-based, human; conditions: Homo sapiens; 10 μM; SK-OV-3, Ovarian Cancer; read-out: Growth percentage
ACHN = assay: as above; format: cell-based, human; conditions: Homo sapiens, 10 μM, Renal Cancer, read-out: Growth percentage
CAKI-1 = assay: as above; format: cell-based; conditions: Homo sapiens; 10 μM; CAKI-1, Renal Cancer; read-out: Growth percentage
RXF 393 = assay: as above; format: cell-based; conditions: Homo sapiens; 10 μM; RXF 393, Renal Cancer; read-out: Growth percentage
TK-10 = assay: as above; format: cell-based, human; conditions: Homo sapiens; 10 μM; TK-10, Renal Cancer; read-out: Growth percentage
BT-549 = assay: as above; format: cell-based; conditions: Homo sapiens; 10 μM; BT-549, Breast Cancer; read-out: Growth percentage
T-47D = assay: as above; format: cell-based, human; conditions: 10 μM, Breast Cancer
MDA-MB-468 = assay: as above; format: cell-based, human; conditions: Homo sapiens, MDA-MB-468, 10 μM; MDA-MB-468, Breast Cancer; read-out: Growth percentage
Source text: Control cells Test cells FLD
available usually at NCI library.
An aliquot of frozen drug concentrate is […]

[1] = system: 60 human cancer cell lines; assay: NCI-60 screening, full panel (mean growth, MID a, ranges over all lines); conditions: Homo sapiens, read-out: Mean growth percentage
Method: The screening was performed in accordance with the protocols set forth by the Drug Evaluation Department of the National Cancer Institute (NCI), Bethesda, USA, for in vitro anticancer efficacy at a single concentration of 10 µM against a panel of 60 cancer cell lines derived from nine distinct organs (https://dctd.cancer.gov/data-tools-biospecimens/data (accessed on 15 March 2023 and 6 January 2024)) [37].
The log10 GI50, log10 TGI, and log10 LC50 values were subsequently calculated as the averages of the log10 values of the respective individual GI50, TGI, and LC50 measurements. Negative numbers signified the most sensitive cell lines.
One way to measure a compound’s selectivity is to divide its subpanel MID^b (in μM) by the MID^a (in μM), which is the average sensitivity of all cell lines to the test agent.
At the National Cancer Institute (NCI) in Bethesda, USA, researchers examined the anticancer potential of the target compounds under investigation using nine panels of sixty different cell lines obtained from nine different cancers that were housed in the NCI library. Following the protocols laid out by the National Cancer Institute (https://dctd.cancer.gov/data-tools-biospecimens/data (accessed on 15 March 2023 and 6 January 2024)), the screening procedures were carried out [37]. The anticancer screening was carried out at a single dose of 10^−5 M; the results obtained were expressed as growth inhibition (%).
The anti-cancer potential of the tested compounds was evaluated at the National cancer institute (NCI), Bethesda, USA, against 9 panels of 60 various cell lines derived from nine human tumours available usually at NCI library. The procedures for the screening were described in details in NCI website (dttp://www.dtp.nci.nih.gov.) and were done according to NCI protocols. The anticancer screening was carried out at single dose of 10^-5 M. The results obtained as growth inhibition (%).
Cell lines were grown in Roswell Park Memorial Institute medium (RPMI) with 5% fetal bovine serum and 2% μM L-glutamine. Cancer cells are inoculated into 96 well microtiter plates in 100 μL at plating densities ranging from 5000 to 40,000 cells/well depending on the doubling time of individual cell lines. Then microtiter plates are incubated at 37 °C, 5% CO2, 95% air and 100% relative humidity for 24 h prior to the addition of the tested compounds. After 24 h, two plates of each cell line are fixed in situ with trichloroacetic acid (TCA). The tested compounds were dissolved in dimethyl sulfoxide (DMSO) and stored in the freezer prior to use. An aliquot of frozen drug concentrate is diluted to the desired concentration with complete medium containing 50 μg/mL gentamicin.

COc1ccc(/C=C/C(=O)c2sc(SCC(=O)N3CCN(c4cc5c(cc4F)c(=O)c(C(=O)O)cn5C4CC4)CC3)nc2C)cc1 [Compound 4j, (E)-1-Cyclopropyl-6-fluoro-7-(4-(2-((5-(3-(4-methoxyphenyl)acryloyl)-4-methylthiazol-2-yl)thio)acetyl)piperazin-1-yl)-4-oxo-1,4-dihydroquinoline-3-carboxylic Acid]
activity at 10 µM (CCRF-CEM): 110% | activity at 10 µM (MOLT-4): 99.7% | Growth percentage (SR): 88.9% | activity at 10 µM (A549/ATCC): 105% | activity at 10 µM (EKVX): 103% | activity at 10 µM (HOP-92): 105% | activity at 10 µM (NCI-H226): 102% | activity at 10 µM (NCI-H23): 102% | activity at 10 µM (NCI-H460): 106% | activity at 10 µM (NCI-H522): 99% | activity at 10 µM (COLO 205): 106% | activity at 10 µM (SF-268): 148% | activity at 10 µM (SF-539): 97.5% | activity at 10 µM (U251): 107% | activity at 10 µM (MDA-MB-435): 108% | activity at 10 µM (SK-MEL-2): 104% | activity at 10 µM (SK-MEL-28): 114% | activity at 10 µM (UACC-62): 111% | activity at 10 µM (OVCAR-3): 174% | activity at 10 µM (OVCAR-4): 101% | activity at 10 µM (OVCAR-8): 94.6% | activity at 10 µM (SK-OV-3): 115% | activity at 10 µM (ACHN): 97.4% | activity at 10 µM (CAKI-1): 94.9% | activity at 10 µM (RXF 393): 99.3% | activity at 10 µM (TK-10): 102% | activity at 10 µM (BT-549): 102% | Growth percentage (T-47D): 94.7% | activity at 10 µM (MDA-MB-468): 107% | activity at 10 µM [1]: 105%
